The target in the experiment is Gag-Pol polyprotein (Human immunodeficiency virus type 1 group M subtype B (isolate HXB2), UniProt P04585). Description: concentration-response of HIV-1 RNase H blockers – biochemical, probe assessment, dose response (AID 652). The note with it: pH 8; 23 °C.
Compound `O=C(NC1CCS(=O)(=O)C1)c1c(NC(=O)C2COc3ccccc3O2)sc2c1CCCC2` (centres undefined) [MLS000077500] returned an IC50 of 46.3 µM. In other words, the double-digit micromolar range.

Regarding `O=C1c2sc3nc4ccccc4n3c2C(=O)N1c1ccccc1Cl` [MLS000038506], half-maximal inhibition (IC50) required 1.13 µM.

With `COc1cccc(OC)c1-c1nn2c(-c3cc(-c4ccccc4)n[nH]3)nnc2s1` [MLS000083027], the half-inhibitory concentration (IC50) worked out at 3.81 µM.

In turn, `Cc1cccc(N2CCN(C(=O)Cn3sc4nc(C)cc(C)c4c3=O)CC2C)c1` (centres undefined) [2-[2-keto-2-[3-methyl-4-(m-tolyl)piperazino]ethyl]-4,6-dimethyl-isothiazolo[5,4-b]pyridin-3-one] had an IC50 of 4.28 µM.

Take `Cc1nn2c(-c3cccc(NC(=O)CSc4nc5ccccc5o4)c3)nnc2c2ccccc12` [2-(1,3-benzoxazol-2-ylsulfanyl)-N-[3-(6-methyl-[1,2,4]triazolo[3,4-a]phthalazin-3-yl)phenyl]acetamide]: half-maximal inhibition (IC50) required 3.71 µM.

The compound `c1ccc(Cc2nn3c(Cn4cnc5ccccc54)nnc3s2)cc1` [1-[(6-benzyl[1,2,4]triazolo[3,4-b][1,3,4]thiadiazol-3-yl)methyl]-1H-benzimidazole] registered a half-inhibitory concentration (IC50) of 2.2 µM. Against the preceding compound, the IC50 is about 1.7-fold lower.

`CC(=O)N(Cc1cc(=O)[nH]c2ccccc12)c1cccc(C)c1` [N-(3-methylphenyl)-N-[(2-oxidanylidene-1H-quinolin-4-yl)methyl]ethanamide] registered a concentration for half-maximal inhibition (IC50) of 5.08 µM. This IC50 lies about 2.3-fold higher than the previous one.

For the compound `Fc1ccc(-c2nnc3sc(-c4ccc5c(c4)OCO5)nn23)cc1` [6-(1,3-benzodioxol-5-yl)-3-(4-fluorophenyl)-[1,2,4]triazolo[3,4-b][1,3,4]thiadiazole], half-maximal inhibition (IC50) was put at 3.92 µM.

In turn, `COc1ccc(S(=O)(=O)Nc2ccc(O)c3ccccc23)cc1` [4-methoxy-N-(4-oxidanylnaphthalen-1-yl)benzenesulfonamide] returned an IC50 of 4.07 µM.

In turn, `NC(=O)c1cc(-c2ccccc2)sc1NC(=O)Cc1ccc(S(=O)(=O)N2CCOCC2)s1` [2-[2-(5-morpholin-4-ylsulfonylthiophen-2-yl)ethanoylamino]-5-phenyl-thiophene-3-carboxamide] showed a half-maximal inhibitory concentration (IC50) of 7.35 µM.

The compound `c1ccc(-n2ncc3c2ncn2nc(-c4ccco4)nc32)cc1` [MLS000041701] had a concentration for half-maximal inhibition (IC50) of 8.01 µM.

Turning to `CCOC(=O)N1CCC2=C(C#N)C(=N)C(C#N)(C#N)[C@H](c3ccc(OC(C)C)c(OCC)c3)[C@H]2C1` [(8S,8aR)-6-amino-5,7,7-tricyano-8-(3-ethoxy-4-isopropoxy-phenyl)-1,3,8,8a-tetrahydroisoquinoline-2-carboxylic acid ethyl ester], inhibition was half-maximal at 21.7 µM (IC50).

For the compound `Cc1cc(C(=O)CSc2nnc(-c3ccc(OC(F)F)cc3)o2)c(C)n1Cc1cccs1` [2-[[5-[4-(difluoromethoxy)phenyl]-1,3,4-oxadiazol-2-yl]sulfanyl]-1-[2,5-dimethyl-1-(thiophen-2-ylmethyl)pyrrol-3-yl]ethanone], the IC50 is 1.88 µM. Compared with the last compound, the IC50 is about 12-fold lower.

Consider `C=CCn1c(SCC(=O)c2ccc(O)c(O)c2)nnc1-c1ccccc1OC` [1-(3,4-dihydroxyphenyl)-2-[[5-(2-methoxyphenyl)-4-prop-2-enyl-1,2,4-triazol-3-yl]sulfanyl]ethanone], for which the IC50 was 2.57 µM.

`Cc1ccc(NC(=O)CSc2nnc(-c3ccc(S(=O)(=O)N4CCCC4)cc3)o2)cc1C` [MLS000071775]: the IC50 came out at 12.3 µM. This IC50 lies about 4.8-fold higher than the previous one.

Compound `O=C(CSc1nc2ccccc2c2nc3ccccc3n12)NCc1ccco1` [2-(6-benzimidazolo[1,2-c]quinazolinylthio)-N-(2-furanylmethyl)acetamide] gave a half-inhibitory concentration (IC50) of 8.73 µM.

In the case of `O=C(O)/C=C/c1ccc(O)c(O)c1` [3,4-Dihydroxycinnamate, XVII], the IC50 is greater than 50 µM.

Consider `CN(c1ccccc1)c1ccc(C=c2s/c(=C(/C#N)C(=O)C(C)(C)C)n(Cc3ccco3)c2=O)cc1` [2-[3-(furan-2-ylmethyl)-5-[[4-(N-methylanilino)phenyl]methylidene]-4-oxo-1,3-thiazolidin-2-ylidene]-4,4-dimethyl-3-oxopentanenitrile], for which the IC50 was found to be 2.01 µM.

In the case of `CCn1c2ccccc2c2nc3cc(S(=O)(=O)N4CCOCC4)ccc3nc21` [4-(6-ethylindolo[2,3-b]quinoxalin-2-yl)sulfonylmorpholine], the IC50 amounted to 1.02 µM.

In turn, `O=C1CC(c2ccccc2)Cc2nc(N3CCc4ccccc43)ncc21` (centres undefined) [2-(2,3-dihydroindol-1-yl)-7-phenyl-7,8-dihydro-6H-quinazolin-5-one] yielded a 50% inhibitory concentration (IC50) of 5.87 µM. Compared with the last compound, the IC50 is about 5.8-fold higher.

`Cc1ccccc1OCc1nc(-c2ccc(NC(=O)c3ccc4c(c3)OCO4)cc2)no1` [MLS000047257] yielded a concentration for half-maximal inhibition (IC50) of 4.58 µM.

`CCOC(=O)C1CCCN(C(=O)Cn2sc3nc(C)cc(C)c3c2=O)C1` (centres undefined) [1-[2-(3-keto-4,6-dimethyl-isothiazolo[5,4-b]pyridin-2-yl)acetyl]nipecotic acid ethyl ester]: the IC50 was 9.03 µM.

In turn, `O=C(Nc1ccc2nc(-c3ccco3)c(-c3ccco3)nc2c1)N1CCCCCC1` yielded a half-maximal inhibitory concentration (IC50) of 0.953 µM. This IC50 lies about 9.5-fold lower than the previous one.

In the case of `O=C(CCCn1c(SCC(=O)c2ccc(O)c(O)c2)nc2ccccc2c1=O)NCC1CCCO1` (centres undefined) [4-[2-[2-(3,4-dihydroxyphenyl)-2-oxoethyl]sulfanyl-4-oxoquinazolin-3-yl]-N-(oxolan-2-ylmethyl)butanamide], the half-maximal inhibitory concentration (IC50) was found to be 0.879 µM.

For `COc1ccccc1/N=c1\oc2c(OC)cccc2cc1C(=O)NCc1ccco1` [8-Methoxy-2-[(Z)-2-methoxy-phenylimino]-2H-chromene-3-carboxylic acid (furan-2-ylmethyl)-amide], inhibition was half-maximal at 3.13 µM (IC50).

In turn, `COC(=O)N(c1ccccc1)P1(=S)OCCO1` [MLS000052970] gave an IC50 of 2.06 µM.

The compound `COc1ccc(C2c3c(oc4ccc(Cl)cc4c3=O)C(=O)N2Cc2ccco2)cc1OC` (centres undefined) [7-chloranyl-1-(3,4-dimethoxyphenyl)-2-(furan-2-ylmethyl)-1H-chromeno[2,3-c]pyrrole-3,9-dione] had an IC50 of 13.5 µM. This IC50 lies about 6.6-fold higher than the previous one.

`COc1ccc2ccccc2c1C1CC(=O)N2CN(C3CCCCC3)CSC2=C1C#N` (centres undefined) [3-cyclohexyl-8-(2-methoxynaphthalen-1-yl)-6-oxo-2,4,7,8-tetrahydropyrido[2,1-b][1,3,5]thiadiazine-9-carbonitrile] registered a 50% inhibitory concentration (IC50) of 3.62 µM.

As to `COc1cc(C(=O)Nc2oc(-c3ccccc3)c(-c3ccccc3)c2C#N)cc(OC)c1OC` [MLS000051579], it took 6.05 µM to reach half-maximal inhibition (IC50). Against the preceding compound, the IC50 is about 1.7-fold higher.

The compound `Cc1cccc(C)c1NC(=O)CSCC(=O)c1ccc(O)c(O)c1` [2-[2-(3,4-dihydroxyphenyl)-2-oxoethyl]sulfanyl-N-(2,6-dimethylphenyl)acetamide] showed a concentration for half-maximal inhibition (IC50) of 3.8 µM.

Compound `Cc1cc(C)c2oc(-c3ccc(Cl)c(NC(=O)c4ccc(C#N)cc4F)c3)nc2c1` [MLS000052597] gave an IC50 of 2.73 µM.

`C=CCc1c(C)nc(S)c(C#N)c1C` [4,6-dimethyl-5-prop-2-enyl-2-sulfanylidene-1H-pyridine-3-carbonitrile]: the half-maximal inhibitory concentration (IC50) came to 7.25 µM.

For `CCOc1ccccc1N1CSC2=C(C#N)C(c3c(OC)ccc4ccccc34)CC(=O)N2C1` (centres undefined) [3-(2-ethoxyphenyl)-8-(2-methoxy-1-naphthalenyl)-6-oxo-2,4,7,8-tetrahydropyrido[2,1-b][1,3,5]thiadiazine-9-carbonitrile], the IC50 was 2.18 µM. Against the preceding compound, the IC50 is about 3.3-fold lower.

Regarding `COC(=O)c1sc(N2C(=O)c3oc4ccccc4c(=O)c3C2c2cccs2)nc1C` (centres undefined) [2-(3,9-dioxo-1-thiophen-2-yl-1H-[1]benzopyrano[2,3-c]pyrrol-2-yl)-4-methyl-5-thiazolecarboxylic acid methyl ester], the 50% inhibitory concentration (IC50) is 5.25 µM.

One may read the IC50 as the point on the concentration scale where inhibition reaches its midpoint. High values mean a need for much substance, low ones inhibition by little substance.

The record behind these values is BindingDB's records for doi:10.7270/Q2H70D5W (University of Pittsburgh, 2007).
